Experimental data: publication PMC10869544 (Frontiers in Immunology, 2024)

Target: NEK7 (Homo sapiens, UniProt Q8TDX7)
Test: biochemical in vitro kinase assay (Reaction Biology), 10-dose IC50, […] ATP

Chain of NEK7 (Q8TDX7 whole entry): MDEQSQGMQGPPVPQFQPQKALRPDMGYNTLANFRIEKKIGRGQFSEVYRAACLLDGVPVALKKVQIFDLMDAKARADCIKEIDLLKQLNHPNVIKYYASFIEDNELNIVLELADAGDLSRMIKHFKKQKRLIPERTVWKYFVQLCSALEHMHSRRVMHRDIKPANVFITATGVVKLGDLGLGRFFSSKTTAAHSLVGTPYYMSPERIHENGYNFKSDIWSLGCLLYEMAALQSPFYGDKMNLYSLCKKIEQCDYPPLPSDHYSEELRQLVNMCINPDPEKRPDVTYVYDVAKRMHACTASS

In the case of `CCN1CCN(c2ccc(Nc3ncc4scc(-c5cccc(C(=O)NCCN(C)C)c5)c4n3)cc2)CC1` [SLC3037, N-(2-(Dimethylamino)ethyl)-3-(2-((4-(4-ethylpiperazin-1-yl)phenyl)amino)thieno[3,2-d]pyrimidin-7-yl)benzamide], the IC50 is reported as 2850 nM.
